According to article PMC10609720, “Antiviral Activity of Flavonoids from Geopropolis of the Brazilian Jandaira Bee against Zika and Dengue Viruses” (Pharmaceutics, 2023):

What was measured:
[1] = Cell viability assay (MTT) in Vero cells; assay type: cell-based; settings: African green monkey
Method: (§1) The cell toxicity induced by the three tested fractions and the isolated flavonoids was evaluated in a growing Vero cell. […] To this end, Vero cells (1 × 10^4 cells/well) were plated in 96-well microplates 24 h beforehand. […] After a period of 120 h at 37 °C in a 5% CO2 atmosphere, the culture medium was removed from the plate, and 50 μL of recently prepared MTT solution (1 mg/mL) was then added. The 96-well microplate was placed in a CO2 incubator for 4 h at 37 °C. After this period, the MTT solution was replaced by DMSO. Then, the optical density at 540 nm (OD540) was measured using a BioTekTM ELx800TM 96-well plate reader (BioTek Instruments Inc., Winooski, VT. The OD540 subtraction of treated cells compared to untreated cells was calculated. […] The CC20 value was empirically defined as the maximum safe limit to perform the antiviral screening. Results were expressed as mean ± SD of three independent replicates. The differences in viral titer of treated and untreated infected cells were analyzed according to ANOVA followed by the Dunnett test using GraphPad Prism software v.5.01 (GraphPad Software, La Jolla, CA, USA). The drug concentration that reduced viral titer by 50% (IC50) was defined using the same software. […] The CC50 and CC20 values were also calculated using GraphPad Prism software in a non-linear regression interpretation. The selective index (SI) was based on the ratio math of CC50 and IC50 values. Data were reported as the mean ± standard deviation (SD) of three independent experiments. Significance was only considered when p < 0.05.

ZIKV = assay: Post-treatment antiviral assay, viral titration by TCID50, ZIKV-infected Vero cells; assay type: cell-based; settings: for % ZIKV Inhibition / IC50: Vero cells; for % ZIKV Inhibition: MOI 0.1, treated with CC20 of each sample for 120 h, TCID50; for SI / IC50: ZIKV; for SI: ratio of CC50 and IC50; for IC50: MOI 0.1, concentration to reduce viral titer by 50%; for ZIKV-induced cytopathic effect in Vero cell monolayers: treatment at CC20, microscopy, Figure 4B,C
Method: (§2) One day prior to infection with the ZIKV or DENV strain, Vero cells were seeded in 24-well plates (5 × 10^4 cells/well). The infection was performed at the multiplicity of infection (MOI) of 0.1 for 2 h at 37 °C in 5% CO2. After virus internalization, the inoculum was removed, and the cells were washed using the growth medium. […] 6-MMPr, used as positive control drug, was also included as a drug treatment in some wells [33]. Controls of mock (non-infected) and infected non-treated cells were included. At 120 h post-infection (hpi), the cytopathic effect was evaluated using an inverted microscope (AE2000 binocular microscope, Motic, Hong Kong), and cells were photographed with a smartphone. The cell supernatant was harvested at 120 hpi and stored at −80 °C for posterior virus titration, using the TCID50 method.
(§3) The TCID50 method was used here to perform viral titration. The titer values were expressed as log10 TCID50/mL. One day prior to titration, Vero cells were seeded in a 96-well plate (1 × 10^4 cells/well) at 37 °C in a 5% CO2 incubator. The cell supernatants that were previous stored (see item 2.5—cytopathic effect assay) were serially diluted 10-fold in DMEM and submitted to the cell monolayer. After incubation for 5 days at 37 °C and 5% CO2, the cytopathic effect was observed through an inverted optical microscope, and the reduction in viral titer was defined according to Reed–Muench parameters.
(§4) The differences in viral titer of treated and untreated infected cells were analyzed according to ANOVA followed by the Dunnett test using GraphPad Prism software v.5.01 (GraphPad Software, La Jolla, CA, USA). The drug concentration that reduced viral titer by 50% (IC50) was defined using the same software. This represents the compound concentration required to reduce ZIKV or DENV titer by 50% when compared with the non-treated cells. The CC50 and CC20 values were also calculated using GraphPad Prism software in a non-linear regression interpretation. The selective index (SI) was based on the ratio math of CC50 and IC50 values. Data were reported as the mean ± standard deviation (SD) of three independent experiments. Significance was only considered when p < 0.05.

DENV-2 = assay: Post-treatment antiviral assay, viral titration by TCID50, DENV-infected Vero cells; assay type: cell-based; settings: for SI / IC50: DENV; for SI: ratio of CC50 and IC50; for IC50 / % DENV-2 Inhibition: Vero cells; for IC50: MOI 0.1, concentration to reduce viral titer by 50%; for % DENV-2 Inhibition: MOI 0.1, treated with CC20 of each sample for 120 h, TCID50
Method: as §2, §3, §4

Hela cells = tested on: Hela cells; parameters: method as in PMID 29354400; settings: at the tested concentrations, ref [59]; cited from earlier work
Vero cells = assay: Cell viability assay (MTT) in Vero cells; assay type: cell-based; settings: Vero cells
Method: as §1

[2] = Table 3, non-toxic concentration used in the antiviral assays

| Structure (SMILES) | CC50 at 120 h [1] [µM] | % ZIKV Inhibition (ZIKV) [%] | SI (ZIKV) | IC50 (ZIKV; Zika virus) [µM] | ZIKV-induced cytopathic effect in Vero cell monolayers (ZIKV) | SI (DENV-2) | IC50 (DENV-2; Dengue virus, DENV2) [µM] | % DENV-2 Inhibition (DENV-2) [%] | DENV-induced cytopathic effect in Vero cell monolayers (DENV-2; treatment at CC20, microscopy, Figure 5B,C) | cell viability (Hela cells) [%] | CC50 (Vero cells; Table 2, MTT method, 120 h) [µM] | CC50 (Vero cells; Table 3) [µM] | CC20 (Vero cells; [2]) [μM/mL] | IC50 (ZIKV) [µM] | IC50 (DENV-2) [µM] | CC20 (Vero cells; Table 2, MTT method, 120 h) [µM/mL] |
| --- | --- | --- | --- | --- | --- | --- | --- | --- | --- | --- | --- | --- | --- | --- | --- | --- |
| COc1cc(O)c2c(c1)O[C@H](c1ccc(O)cc1)CC2=O [7-O-methyl naringenin] | 240 | 30.3 | 18.7 | 12.8 | prevented morphological modifications | 7.7 | 30.9 | 51.6 | prevented morphological modifications | 100 | – | – | – | – | – | – |
| CSc1ncnc2c1ncn2[C@@H]1O[C@H](CO)[C@@H](O)[C@H]1O [6-MMPr, 6-methylmercaptopurine riboside, reference compound] | – | 51.5 | 11.9 | – | – | 16.0 | – | 48.3 | – | – | 291 | 291 | 60.5 | 24.5 | 18.2 | – |
| O=C1C[C@@H](c2ccc(O)cc2)Oc2cc(O)cc(O)c21 [Naringenin] | 242 | 34.7 | – | 58.9 | prevented morphological modifications | – | 42.9 | 61.5 | – | – | – | – | 86.43 | – | – | 86.43 |
